The results in this text go back to US20230257351A1, “SUBSTITUTED N-[…] HAVING P2X4 RECEPTOR ANTAGONISTIC ACTIVITY” (Bayer Aktiengesellschaft, priority 2020, published 2023).

SMILES strings stand for the structures.

In experiment [1] the target is T1, human P2X4 (Homo sapiens, UniProt Q99571).
T1 construct: expressed in transfected cells
T1 sequence (Q99571 1-388): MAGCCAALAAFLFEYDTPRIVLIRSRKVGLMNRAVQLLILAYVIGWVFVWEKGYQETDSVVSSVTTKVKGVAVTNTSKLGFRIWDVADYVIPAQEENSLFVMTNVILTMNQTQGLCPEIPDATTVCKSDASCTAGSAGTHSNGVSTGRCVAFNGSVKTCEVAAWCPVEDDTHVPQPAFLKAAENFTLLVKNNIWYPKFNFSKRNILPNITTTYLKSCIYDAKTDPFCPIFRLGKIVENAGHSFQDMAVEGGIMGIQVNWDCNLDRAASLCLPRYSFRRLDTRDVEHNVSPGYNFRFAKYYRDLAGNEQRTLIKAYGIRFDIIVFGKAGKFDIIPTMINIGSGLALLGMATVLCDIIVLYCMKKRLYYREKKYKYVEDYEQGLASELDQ
Description: Human P2X4 HEK Cell FLIPR Assay. The format is cell-based. Conditions: HEK293 stably expressing human P2X4, agonist Bz-ATP 3 μM (EC80); for IC50: read-out: Human P2X4 HEK Cells (FLIPR Assay) avg IC50. The essentials:
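Compounds were preincubated 30 min at room temperature on Fluo8-AM-loaded HEK293 cells stably expressing human P2X4. The response was the calcium fluorescence rise on Bz-ATP addition.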

For experiment [2], the target named is T2, rat P2X4 (Rattus norvegicus, UniProt P51577).
T2 construct: expressed in transfected cells
T2 sequence (P51577 1-388): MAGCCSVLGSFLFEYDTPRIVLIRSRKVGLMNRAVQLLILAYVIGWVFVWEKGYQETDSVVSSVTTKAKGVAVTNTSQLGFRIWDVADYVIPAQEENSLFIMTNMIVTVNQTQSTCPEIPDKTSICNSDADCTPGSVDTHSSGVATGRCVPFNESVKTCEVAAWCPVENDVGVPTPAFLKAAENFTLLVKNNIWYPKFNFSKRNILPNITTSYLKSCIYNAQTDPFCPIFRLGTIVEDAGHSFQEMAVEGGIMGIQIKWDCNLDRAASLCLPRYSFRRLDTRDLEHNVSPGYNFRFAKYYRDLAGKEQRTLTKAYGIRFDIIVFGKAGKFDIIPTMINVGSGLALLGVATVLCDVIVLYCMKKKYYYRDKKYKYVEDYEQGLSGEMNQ
Description: FLIPR Method for Rat P2X4 1321N1 Astrocytoma Cells. Type of experiment: cell-based. Conditions: 1321N1 stably expressing rat P2X4; agonist MgATP 5 μM (EC80). On the procedure: Compounds were tested on a 1321N1 cell line stably expressing rat P2X4. Cells were cultured on collagen-I-coated 384-well plates at a density of 10,000 cells/well and incubated overnight at 37° C., 5% CO2. P2X4 function was assessed by measuring intracellular calcium fluxes caused by Magnesium-ATP (MgATP) using the calcium-chelating dye Fluo8-AM (Molecular Devices) with the Fluorescent Imaging Plate Reader Tetra (FLIPR^Tetra; Molecular Devices CA). On the day of the assay, the medium was removed and the cells were incubated for 30 minutes at 37° C. and 5% CO2 in 30 μl of dye buffer (Hank's balanced salt solution, 10 mM HEPES, 1.8 mM CaCl2, 1 mM MgCl2, 2 mM probenecid, 5 mM D-glucose monohydrate, 5 μM Fluo8-AM, pH=7.4).
Compounds diluted in probenecid buffer (Hank's balanced salt solution, 10 mM HEPES, 1.8 mM CaCl2, 1 mM MgCl2, 2 mM probenecid, 5 mM D-glucose monohydrate, pH=7.4) at ten concentrations ranging from 25 μM to 1 nM (final concentration) were dispensed and incubated for 30 minutes at room temperature. The agonist, MgATP (Sigma-Aldrich Chemie GmbH, DE), was added at a final concentration of 5 μM, representing the EC80 routinely determined. The final assay volume was 50 μl and final DMSO concentration was 0.5%.
The fluorescence intensity reflecting intracellular calcium changes was recorded before and after MgATP addition, at an excitation and emission wavelengths of 470-495 nm and 515-575 nm respectively.
The compounds were tested in triplicates and fluorescence intensity raw data normalized to the agonist control and fitted to the four-parameter logistic equation:
Y=Bottom+(Top−Bottom)/(1+10^((Log IC50−X)*HillSlope))
Assay plate acceptance was based on the signal window (S/B)[…] and the reference compound pIC50 within ±[…] the mean of historic pIC50 of the compound. Failure to meet two of the three criteria determined exclusion of the plate's results. In Table 10 below the results for the assays are reported

Regarding `CC(=O)N(c1cccc(F)c1)c1cc(NC(=O)Cc2c(Cl)cc(F)cc2Cl)ccn1` [Example 57, N-{4-[2-(2,6-dichloro-4-fluorophenyl)acetamido]pyridin-2-yl}-N-(3-fluorophenyl)acetamide], in experiment [1], the “Human P2X4 HEK Cells (FLIPR Assay) avg Efficacy” value (shortened to “Human P2X4 HEK Cells”) was 99% and the IC50 – broadly, the concentration that gives 50% inhibition – was 377 nM. In addition, in experiment [2], the IC50 is 122 nM and the “Rat P2X4 1321N1 Astrocytoma Cells (FLIPR Assay) avg Efficacy” value (“Rat P2X4 1321N1 Astrocytoma Cells” below) is given as 97%.
On the same counts, the results for `CC(=O)N(c1ccc(Cl)c(F)c1)c1cc(NC(=O)Cc2ccccc2Cl)ccn1` [Example 58, N-(4-chloro-3-fluorophenyl)-N-{4-[2-(2-chlorophenyl)acetamido]pyridin-2-yl}acetamide] are 95%, 351 nM, 350 nM and 86%.
On the same counts, the results for `CC(=O)N(c1ccc(Cl)c(F)c1)c1cc(NC(=O)Cc2ccc(F)cc2Cl)ccn1` [Example 59, N-(4-chloro-3-fluorophenyl)-N-{4-[2-(2-chloro-4-fluorophenyl)acetamido]pyridin-2-yl}acetamide] are 97%, 532 nM, 240 nM and 81%.
On the same counts, the results for `CC(=O)N(c1ccc(Cl)c(F)c1)c1cc(NC(=O)Cc2cccc(F)c2Cl)ccn1` [Example 60, N-(4-chloro-3-fluorophenyl)-N-{4-[2-(2-chloro-3-fluorophenyl)acetamido]pyridin-2-yl}acetamide] are 96%, 454 nM, 434 nM and 94%.
For `CC(=O)N(c1ccc(F)c(F)c1)c1cc(NC(=O)Cc2cccc(C)c2C)ccn1` [Example 62, N-(3,4-difluorophenyl)-N-{4-[2-(2,3-dimethylphenyl)acetamido]pyridin-2-yl}acetamide], in experiment [1], the “Human P2X4 HEK Cells” value worked out at 91% and the IC50 worked out at 251 nM. In addition, in experiment [2], the IC50 turned out to be 368 nM and the “Rat P2X4 1321N1 Astrocytoma Cells” value is reported as 91%.
Regarding `CC(=O)N(c1ccc(F)c(F)c1)c1cc(NC(=O)Cc2ccccc2C(F)(F)F)ccn1` [Example 63, N-(3,4-difluorophenyl)-N-(4-{2-[2-(trifluoromethyl)phenyl]acetamido}pyridin-2-yl)acetamide], in experiment [1], the “Human P2X4 HEK Cells” value came out at 97% and the IC50 is 424 nM. In addition, in experiment [2], the IC50 came out at 372 nM and the “Rat P2X4 1321N1 Astrocytoma Cells” value was 97%.
With `CC(=O)N(c1ccc(F)c(F)c1)c1cc(NC(=O)Cc2c(C)cc(Cl)cc2Cl)ccn1` [Example 64, N-{4-[2-(2,4-dichloro-6-methylphenyl)acetamido]pyridin-2-yl}-N-(3,4-difluorophenyl)acetamide], in experiment [1], the “Human P2X4 HEK Cells” value worked out at 96% and the IC50 worked out at 829 nM. For the same compound, in experiment [2], the concentration for half-maximal inhibition (IC50) was determined as 497 nM and the “Rat P2X4 1321N1 Astrocytoma Cells” value was found to be 100%.
On the same counts, the results for `CC(=O)N(c1ccc(F)c(F)c1)c1cc(NC(=O)Cc2c(C)cc(C)cc2Cl)ccn1` [Example 65, N-{4-[2-(2-chloro-4,6-dimethylphenyl)acetamido]pyridin-2-yl}-N-(3,4-difluorophenyl)acetamide] are 94%, 505 nM, 122 nM and 93%.
On to `CC(=O)N(c1ccc(F)c(F)c1)c1cc(NC(=O)Cc2c(C)cccc2C)ccn1` [Example 66, N-(3,4-difluorophenyl)-N-{4-[2-(2,6-dimethylphenyl)acetamido]pyridin-2-yl}acetamide], for which, in experiment [1], the “Human P2X4 HEK Cells” value amounted to 90% and the IC50 was 303 nM. For the same compound, in experiment [2], the IC50 was 64.2 nM and the “Rat P2X4 1321N1 Astrocytoma Cells” value is 73%.
On the same counts, the results for `CC(=O)N(c1ccc(F)c(F)c1)c1cc(NC(=O)Cc2ccc(Cl)cc2Cl)ccn1` [Example 67, N-{4-[2-(2,4-dichlorophenyl)acetamido]pyridin-2-yl}-N-(3,4-difluorophenyl)acetamide] are 94%, 604 nM, 159 nM and 97%.
On the same counts, the results for `CC(=O)N(c1ccc(F)c(F)c1)c1cc(NC(=O)Cc2ccc([N+](=O)[O-])cc2Cl)ccn1` [Example 69, N-{4-[2-(2-chloro-4-nitrophenyl)acetamido]pyridin-2-yl}-N-(3,4-difluorophenyl)acetamide] are 94%, 816 nM, 228 nM and 100%.
On the same counts, the results for `COc1ccc(CC(=O)Nc2ccnc(N(C(C)=O)c3ccc(F)c(F)c3)c2)c(Cl)c1` [Example 70, N-{4-[2-(2-chloro-4-methoxyphenyl)acetamido]pyridin-2-yl}-N-(3,4-difluorophenyl)acetamide] are 88%, 714 nM, 714 nM and 100%.
Take `CC(=O)N(c1ccc(F)c(F)c1)c1cc(NC(=O)Cc2cccc(F)c2Cl)ccn1` [Example 71, N-{4-[2-(2-chloro-3-fluorophenyl)acetamido]pyridin-2-yl}-N-(3,4-difluorophenyl)acetamide]: in experiment [1], the “Human P2X4 HEK Cells” value is 96% and the 50% inhibitory concentration (IC50) came out at 222 nM. Besides, in experiment [2], the IC50 is 165 nM and the “Rat P2X4 1321N1 Astrocytoma Cells” value was determined as 90%.
On the same counts, the results for `CC(=O)N(c1ccc(F)c(F)c1)c1cc(NC(=O)Cc2c(Cl)cccc2Cl)ccn1` [Example 72, N-{4-[2-(2,6-dichlorophenyl)acetamido]pyridin-2-yl}-N-(3,4-difluorophenyl)acetamide] are 97%, 355 nM, 58.5 nM and 89%.
Turning to `CC(=O)N(c1ccc(F)c(F)c1)c1cc(NC(=O)Cc2c(Cl)cc(F)cc2Cl)ccn1` [Example 73, N-{4-[2-(2,6-dichloro-4-fluorophenyl)acetamido]pyridin-2-yl}-N-(3,4-difluorophenyl)acetamide], in experiment [1], the “Human P2X4 HEK Cells” value is recorded as 97% and the IC50 was found to be 428 nM. Moreover, in experiment [2], the IC50 was 67.1 nM and the “Rat P2X4 1321N1 Astrocytoma Cells” value worked out at 93%.
On the same counts, the results for `CC(=O)N(c1ccc(F)c(F)c1)c1cc(NC(=O)Cc2c(Cl)cc(C)cc2Cl)ccn1` [Example 74, N-{4-[2-(2,6-dichloro-4-methylphenyl)acetamido]pyridin-2-yl}-N-(3,4-difluorophenyl)acetamide] are 89%, 585 nM, 99.1 nM and 97%.
